Patent US5616573A, “Glucocorticoids” (Schering Aktiengesellschaft, priority 1993, dated 1997)
Blank lines part the entries; values can stand above or below the molecule they belong to. *1 amine or outer side, *2 acyl side, *3 side chain or, on linkers, in order; H or OH if unused. Where a SMILES comes first, the peptide text is derived from it. [ ]: non-standard residue; d: D form. The star is where a group is joined. Methylprednisolone(17-OCOEt) = CCC(=O)O[C@]1(C(=O)CO*)CC[C@H]2[C@@H]3C[C@H](C)C4=CC(=O)C=C[C@]4(C)[C@H]3[C@@H](O)C[C@@]21C; X2 = C[C@@H]1C[C@H]2[C@@H]3C[C@H](F)C4=CC(=O)C=C[C@]4(C)[C@H]3[C@@H](O)C[C@]2(C)[C@H]1C(=O)CO*; Phthalimidoacetyl = O=C1c2ccccc2C(=O)N1CC(=O)*; Diphenylacetyl = O=C(C(c1ccccc1)c1ccccc1)*; Fmoc = O=C(OCC1c2ccccc2-c2ccccc21)*; 2Naphthoyl = O=C(c1ccc2ccccc2c1)*; X6 = O=C(CCn1c2ccccc2c2ccccc21)*; X7 = O=S(=O)(c1ccc(Cl)cc1)*; X8 = c1ccc(N(c2ccccc2)*)cc1; MeOSuc = COC(=O)CCC(=O)*; Cbz = O=C(OCc1ccccc1)*; X4 = O=C(C=Cc1ccccc1)*; Boc = CC(C)(C)OC(=O)*; Aib = CC(C)(N)C(=O)O; CO = O=C([*:1])[*:2]; CH2Cl = ClC*

What was measured:
Esterases of Rat Skin = assay: Cleavage in the Homogenate of Normal Rat Skin (unspecific cleavage by esterases of rat skin); format: in vitro ADME; settings: percent of hydrolysis rate of 6α-methylprednisolone-17-propionate-21-acetate; approximately 100 μmol/l, pH=7.4, 37° C.
Protocol: (§1) The homogenate of the skin of male rats (0.1 mol/l of phosphate buffer, pH=7.4) is centrifuged for 20 minutes at 10,000 g. The supernatant is adjusted in phosphate buffer to a protein concentration of 3 mg/ml. The test substances in 20 μl of ethanol are added to 1 ml of this homogenate. The final concentration of the corticoid derivatives is approximately 100 μmol/l. The incubation takes place for different periods at 37° C. At the end of incubation, the samples are extracted three times with 3 ml of chloroform. The combined extracts are evaporated to dryness under nitrogen and taken up with 100 μl of ethanol. The ethanolic solutions are mixed with the same volume of water and the saponification products are separated by HPLC (RP 18, acetonitrile/water-gradient, detection 240 nm). The relative hydrolysis rate is indicated in percent of the hydrolysis rate of the 6α-methylprednisolone-17-propionate-21-acetate.

rat ear = assay: Local antiinflammatory action: modified rat ear test according to Tonelli (croton oil); format: in vivo; settings: topical, * = significant (p < 0.05); for Edema [% inhibition]: ear weight, 16 hours after irritant; for Infiltration [% inhibition]: granulocytic infiltrate (myeloperoxidase and leukocyte-elastase), 16 hours
Protocol: The antiinflammatory activity of the corticoid-21-oligopeptide esters is performed in a modified rat ear test according to Tonelli. The modifications are based on changes of irritant solution (4% croton oil, 10% DMSO in ethanol), the type of administration (application of the solution with pipette) and the evaluation of the test 16 hours after administration of the irritant solution. At this time, both the inhibition of the edema by measuring the ear weight and the inhibition of the granulocytic infiltrate by measuring the granulocyte marker myeloperoxidase and leukocyte-elastase in the ear homogenate can be determined. The group size was 6 animals in each case.

Leukocyte Elastase = target: T1, Leukocyte Elastase (Homo sapiens, UniProt P08246); assay: Cleavage of Glucocorticoid-21-Oligopeptide Esters by Leukocyte Elastase in the lysate of human neutrophilic granulocytes; format: biochemical; settings: for Relative Hydrolysis Rate [%]: lysate of human neutrophilic granulocytes, 10^6 cells per ml, 1 hour at 37° C., Fmoc-Ala-Ala-Pro-Val-O-MPP is used as reference
T1 construct: also pure human sputum elastase (Elastin Products)
T1 sequence (P08246 30-267): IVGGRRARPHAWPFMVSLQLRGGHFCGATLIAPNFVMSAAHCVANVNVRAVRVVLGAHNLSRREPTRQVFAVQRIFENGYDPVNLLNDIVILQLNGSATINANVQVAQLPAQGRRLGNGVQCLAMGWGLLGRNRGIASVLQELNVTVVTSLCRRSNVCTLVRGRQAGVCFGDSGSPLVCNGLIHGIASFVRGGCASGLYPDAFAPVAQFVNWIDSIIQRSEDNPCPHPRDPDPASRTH
Protocol: as §1
Polymorphonuclear granulocytes are isolated from donor blood. The cells are lysed in a density of 10^6 cells per ml. 1 ml each of the lysate is mixed with 20 μl of ethanolic corticoid solution (5 mmol/l) After 1 hour of incubation at 37° C., the samples are extracted three times with 3 ml of chloroform and worked up as described above for HPLC analysis. The cleavage of the prodrugs according to the invention can be inhibited under these test conditions by the addition of the specific elastase inhibitor MeO-succinyl-Ala-Ala-Pro-Val-chloromethylketone to 90%. Furthermore, the compounds are also hydrolyzed by pure human sputum-elastase (elastin products).

[1] = concentration 0.003 (unit not given)
[2] = concentration 0.03 (unit not given)
[3] = concentration 0.3 (unit not given)

Compound: CCC(=O)O[C@]1(C(=O)COC(C)=O)CC[C@H]2[C@@H]3C[C@H](C)C4=CC(=O)C=C[C@]4(C)[C@H]3[C@@H](O)C[C@@]21C [6α-methylprednisolone-17-propionate-21-acetate, reference compound]
Relative Hydrolysis Rate [%] (Esterases of Rat Skin): 100%
Edema [% inhibition] (rat ear; [1]): 44%
Infiltration [% inhibition] (rat ear; [1]): 12%
Edema [% inhibition] (rat ear; [2]): 62%
Infiltration [% inhibition] (rat ear; [2]): 45%
Edema [% inhibition] (rat ear; [3]): 67%
Infiltration [% inhibition] (rat ear; [3]): 78%

Compound: CCC(=O)O[C@]1(C(=O)COC(=O)[C@@H](NC(=O)[C@@H]2CCCN2C(=O)[C@H](C)NC(=O)[C@H](C)NC(=O)OCc2ccccc2)C(C)C)CC[C@H]2[C@@H]3C[C@H](C)C4=CC(=O)C=C[C@]4(C)[C@H]3[C@@H](O)C[C@@]21C [Example 5, N-(N-(N-(N-(Phenylmethoxycarbonyl)-L-alanyl)-L-alanyl)-L-prolyl) -L-valine [11β21-dihydroxy-3,20-dioxo-6α-methyl-17-propionyloxy-pregna-1,4-dien-21-yl] ester] (Cbz-AAPV-{Methylprednisolone(17-OCOEt)})
Relative Hydrolysis Rate [%] (Leukocyte Elastase): 160-230%

Compound: CCC(=O)O[C@]1(C(=O)COC(=O)[C@@H](NC(=O)[C@@H]2CCCN2C(=O)[C@H](C)NC(=O)[C@H](C)NC(=O)C(c2ccccc2)c2ccccc2)C(C)C)CC[C@H]2[C@@H]3C[C@H](C)C4=CC(=O)C=C[C@]4(C)[C@H]3[C@@H](O)C[C@@]21C [Example 10, N-(N-(N-(N-((Diphenylmethyl)carbonyl)-L-alanyl)-L-alanyl)-L -prolyl)-L-valine [11β,21-dihydroxy-3,20-dioxo-6α-methyl-17-propionyloxy-pregna-1,4-dien-21-yl] ester] (Diphenylacetyl-AAPV-{Methylprednisolone(17-OCOEt)})
Relative Hydrolysis Rate [%] (Esterases of Rat Skin): 6%

Compound: CCC(=O)O[C@]1(C(=O)COC(=O)[C@@H](NC(=O)[C@@H]2CCCN2C(=O)[C@H](C)NC(=O)[C@H](C)NC(=O)N(c2ccccc2)c2ccccc2)C(C)C)CC[C@H]2[C@@H]3C[C@H](C)C4=CC(=O)C=C[C@]4(C)[C@H]3[C@@H](O)C[C@@]21C [Example 11, N-(N-(N-(N-(Diphenylcarbamoyl)-L-alanyl)-L-alanyl)-L-prolyl)-L-valine [11β,21-dihydroxy-3,20-dioxo-6α-methyl-17-propionyloxy-pregna-1,4-dien-21-yl] ester] ({X8-CO}-AAPV-{Methylprednisolone(17-OCOEt)})
Relative Hydrolysis Rate [%] (Esterases of Rat Skin): 14%

Compound: CCC(=O)O[C@]1(C(=O)COC(=O)[C@@H](NC(=O)[C@@H]2CCCN2C(=O)[C@H](C)NC(=O)[C@H](C)NC(=O)c2ccc3ccccc3c2)C(C)C)CC[C@H]2[C@@H]3C[C@H](C)C4=CC(=O)C=C[C@]4(C)[C@H]3[C@@H](O)C[C@@]21C [Example 12, N-(N-(N-(N-(2-Naphthoyl)-L-alanyl)-L-alanyl)-L-prolyl)-L-valine [11β,21-dihydroxy-3,20-dioxo-6α-methyl-17-propionyloxy-pregna-1,4-dien-21-yl] ester] (2Naphthoyl-AAPV-{Methylprednisolone(17-OCOEt)})
Relative Hydrolysis Rate [%] (Esterases of Rat Skin): 4%

Compound: CCC(=O)O[C@]1(C(=O)COC(=O)[C@@H](NC(=O)[C@@H]2CCCN2C(=O)[C@H](C)NC(=O)[C@H](C)NC(=O)C=Cc2ccccc2)C(C)C)CC[C@H]2[C@@H]3C[C@H](C)C4=CC(=O)C=C[C@]4(C)[C@H]3[C@@H](O)C[C@@]21C [Example 13] (X4-AAPV-{Methylprednisolone(17-OCOEt)})
Relative Hydrolysis Rate [%] (Esterases of Rat Skin): 5%

Compound: CCC(=O)O[C@]1(C(=O)COC(=O)[C@@H](NC(=O)[C@@H]2CCCN2C(=O)[C@H](C)NC(=O)[C@H](C)NS(=O)(=O)c2ccc(Cl)cc2)C(C)C)CC[C@H]2[C@@H]3C[C@H](C)C4=CC(=O)C=C[C@]4(C)[C@H]3[C@@H](O)C[C@@]21C [Example 14, N-(N-(N-(N-(4-Chlorobenzenesulfonyl)-L-alanyl)-L-alanyl)-L -prolyl)-L-valine [11β,21-dihydroxy-3,20-dioxo-6α-methyl-17-propionyloxy-pregna-1,4-dien-21-yl] ester] (X7-AAPV-{Methylprednisolone(17-OCOEt)})
Relative Hydrolysis Rate [%] (Esterases of Rat Skin): 6%

Compound: CCC(=O)O[C@]1(C(=O)COC(=O)[C@@H](NC(=O)[C@@H]2CCCN2C(=O)[C@H](C)NC(=O)[C@H](C)NC(=O)CCn2c3ccccc3c3ccccc32)C(C)C)CC[C@H]2[C@@H]3C[C@H](C)C4=CC(=O)C=C[C@]4(C)[C@H]3[C@@H](O)C[C@@]21C [Example 16, N-(N-(N-(N-(3-(Carbazol-9-yl)-propionyl)-L-alanyl)-L-alanyl)-L -prolyl)-L-valine [11β,21-dihydroxy-3,20-dioxo-6α-methyl-17-propionyloxy-pregna-1,4-dien-21-yl] ester] (X6-AAPV-{Methylprednisolone(17-OCOEt)})
Relative Hydrolysis Rate [%] (Esterases of Rat Skin): 3%

Compound: CCC(=O)O[C@]1(C(=O)COC(=O)[C@@H](NC(=O)[C@@H]2CCCN2C(=O)[C@H](C)NC(=O)[C@H](C)NC(=O)CN2C(=O)c3ccccc3C2=O)C(C)C)CC[C@H]2[C@@H]3C[C@H](C)C4=CC(=O)C=C[C@]4(C)[C@H]3[C@@H](O)C[C@@]21C [Example 17, N-(N-(N-(N-(N-(Phthaloyl)-glycyl)-L-alanyl)-L-alanyl)-L-prolyl) -L-valine [11β,21-dihydroxy-3,20-dioxo-6α-methyl-17-propionyloxy-pregna-1,4-dien-21-yl] ester] (Phthalimidoacetyl-AAPV-{Methylprednisolone(17-OCOEt)})
Relative Hydrolysis Rate [%] (Esterases of Rat Skin): 49%

Compound: CCC(=O)O[C@]1(C(=O)COC(=O)[C@@H](NC(=O)[C@@H]2CCCN2C(=O)[C@H](C)NC(=O)[C@H](C)NC(=O)C(C)(C)NC(=O)OCC2c3ccccc3-c3ccccc32)C(C)C)CC[C@H]2[C@@H]3C[C@H](C)C4=CC(=O)C=C[C@]4(C)[C@H]3[C@@H](O)C[C@@]21C [Example 18, N-(N-(N-(N-(N-((9H-Fluoren-9-ylmethoxy)carbonyl)-2-amino-2-methyl-propionyl)-L-alanyl)-L-alanyl)-L-prolyl)-L-valine [11β,21-dihydroxy-3,20-dioxo-6α-methyl-17-propionyloxy-pregna-1,4-dien-21-yl] ester] (Fmoc-[Aib]AAPV-{Methylprednisolone(17-OCOEt)})
Relative Hydrolysis Rate [%] (Leukocyte Elastase): 130%

Compound: CC(C)[C@H](NC(=O)[C@@H]1CCCN1C(=O)[C@H](C)NC(=O)[C@H](C)NC(=O)OC(C)(C)C)C(=O)OCC(=O)[C@H]1[C@H](C)C[C@H]2[C@@H]3C[C@H](F)C4=CC(=O)C=C[C@]4(C)[C@H]3[C@@H](O)C[C@@]21C [Example 32, N-(N-(N-(N-((1,1-Dimethyl)-ethoxycarbonyl)-L-alanyl)-L-alanyl)-L -prolyl)-L-valine [6α-fluoro-11β,21-dihydroxy-16α-methyl-3,20dioxo-pregna-1,4-dien-21-yl] ester] (Boc-AAPV-X2)
Relative Hydrolysis Rate [%] (Leukocyte Elastase): 380%

Compound: CCCCC(=O)O[C@]1(C(=O)COC(=O)[C@@H](NC(=O)[C@@H]2CCCN2C(=O)[C@H](C)NC(=O)[C@H](C)NC(=O)OC(C)(C)C)C(C)C)[C@@H](C)C[C@H]2[C@@H]3CCC4=CC(=O)C=C[C@]4(C)[C@@]3(F)[C@@H](O)C[C@@]21C [Example 38, N-(N-(N-(N-((1,1-Dimethyl)ethoxycarbonyl)-L-alanyl)-L-alanyl)-L -prolyl)-L-valine [9α-fluoro-11β,21-dihydroxy-16β-methyl-3,20-dioxo-17-valeroyloxy-pregna-1,4-dien-21-yl] ester]
Relative Hydrolysis Rate [%] (Esterases of Rat Skin): 0%

Inhibition of the cleavage of the prodrugs (Leukocyte Elastase; addition of the specific elastase inhibitor to granulocyte lysate): 90%
Compound: COC(=O)CCC(=O)N[C@@H](C)C(=O)N[C@@H](C)C(=O)N1CCC[C@H]1C(=O)N[C@H](C(=O)CCl)C(C)C [MeO-succinyl-Ala-Ala-Pro-Val-chloromethylketone, reference compound] (MeOSuc-AAPV-CH2Cl)
